Read-outs that look alike come from different tables or passages of the source.
What was measured:
Type in all cases: cell-based
potato stem segments [1] = assay: Carbohydrate sources, potato stem segments, 9 weeks; conditions: for # of Shoots per explant / activity at 5000 µg/mL / activity at 10000 µg/mL: 9 weeks; for activity at 5000 µg/mL / activity at 10000 µg/mL: Solanum tuberosum
Source text: Similar results are observed with potato stem segments after 9 weeks of culturing.

potato stem segments [2] = assay: D-xylose as carbohydrate source during shoot regeneration
Description: Explants are produced and treated as described above under "selection of transformed tissue", except that the selection/regeneration substrate was not supplemented with kanamycin or cabenicillin, and that plant tissue is not transformed. Thus the only subcultivation step is when the explants are transferred from the co-cultivation substrate to the selection/regeneration substrate which is supplemented with xylose at the concentrations indicated below. The number of regenerated shoots is recorded after 12 weeks.

[3] = tested on: sugarbeet cotyledon explants; assay: Effect of D-xylose in sugarbeets with and without light; conditions: D-xylose 10 g/l
Description: Sugarbeet is transformed by the so-called cot-pet method as described in PCT Patent Application No. PCT DK92/00108 wherein cotyledons including the petiole are used as explants. Seedlings are derived from seeds germinated and grown for 4-7 weeks at 12° C. in a 16 h day/8 h night regime. Cotyledons are excised 2-3 mm below the node, tawn apart and cultured either in the dark or in light and in the presence or absence of xylose.

[4] = tested on: potato stem segments with control (Kanamycin resistant gene); assay: Selection on D-xylose, potato transformed with control (kanamycin resistant gene)
Description: (§1) Shoots are regenerated from potato stem segments treated with various concentrations of sucrose and D-xylose. The number of shoots are counted after 11 weeks of selection. 105 explants are tested per treatment.

[5] = tested on: potato stem segments with pAH-Xyl; assay: Selection on D-xylose, potato transformed with pAH-Xyl
Description: as §1

[6] = sucrose 0 g/l, 2 weeks in dark and 1 week in light
[7] = sucrose 10 g/l, 2 weeks in dark and 1 week in light
[8] = sucrose 2.5 g/l, D-xylose 2.5 g/l
[9] = sucrose 2.5 g/l, D-xylose 2.5 g/l, 11 weeks, 105 explants
[10] = sucrose 2.5 g/l, D-xylose 5.0 g/l
[11] = sucrose 2.5 g/l, D-xylose 7.5 g/l
[12] = sucrose 5.0 g/l, D-xylose 2.5 g/l
[13] = sucrose 5.0 g/l, D-xylose 5.0 g/l
[14] = sucrose 5.0 g/l, D-xylose 7.5 g/l
[15] = sucrose 10.0 g/l, D-xylose 2.5 g/l
[16] = sucrose 10.0 g/l, D-xylose 5.0 g/l
[17] = sucrose 10.0 g/l, D-xylose 7.5 g/l

For `O=C[C@H](O)[C@@H](O)[C@H](O)CO` [D-xylose], the “# of Shoots per explant” value (potato stem segments [1]; 5 g/l) was 0, the “# of Shoots per explant” value (potato stem segments [1]; 10 g/l) was 0 and the activity at 5000 µg/mL (potato stem segments [1]; 5 g/l, read-out: Size % of control) was 17%. It also gave an activity at 5000 µg/mL (potato stem segments [1]; 5 g/l, read-out: explants alive % of control) of 0%, an activity at 10000 µg/mL (potato stem segments [1]; 10 g/l, read-out: Size % of control) of 13% and an activity at 10000 µg/mL (potato stem segments [1]; 10 g/l, read-out: explants alive % of control) of 0%. For the same molecule, the “effect on shoot regeneration, in words” value (potato stem segments [1]; potato stem segments when sucrose is present) was “inhibitor of shoot regeneration”, the “inhibition of shoot regeneration, in words” value (potato stem segments [2]; when sucrose is present, compared to D-mannose) was “weak inhibitor of shoot regeneration” and the “Number of regenerated shoots each stem segment” value (from here on “Number”) (potato stem segments [2]; xylose 5 g/l, sucrose 0 g/l, 12 weeks) was 0. The “Number” value (potato stem segments [2]; xylose 5 g/l, sucrose 10 g/l) was 3, the “Number” value (potato stem segments [2]; xylose 10 g/l, sucrose 0 g/l) was 0 and the “Number” value (potato stem segments [2]; xylose 10 g/l, sucrose 10 g/l) was 0. The “Number” value (potato stem segments [2]; xylose 20 g/l, sucrose 0 g/l) was 0, the “Number” value (potato stem segments [2]; xylose 20 g/l, sucrose 10 g/l) was 0 and the “% expl. with shoots” value [3, 6] was 13%. For the same molecule, the “Green (%)” value [3, 6] was 77%, the “weight (wet)” value [3, 6] was 0.37 g and the “% expl. with shoots” value ([3]; sucrose 0 g/l, 3 weeks light) was 90%. For the same molecule, the “Green (%)” value ([3]; sucrose 0 g/l, 3 weeks light) was 90%, the “weight (wet)” value ([3]; sucrose 0 g/l, 3 weeks light) was 1.53 g and the “% expl. with shoots” value [3, 7] was 80%. The “Green (%)” value [3, 7] was 97%, the “weight (wet)” value [3, 7] was 0.89 g and the “% expl. with shoots” value ([3]; sucrose 10 g/l, 3 weeks light) was 97%. For the same molecule, the “Green (%)” value ([3]; sucrose 10 g/l, 3 weeks light) was 100%, the “weight (wet)” value ([3]; sucrose 10 g/l, 3 weeks light) was 5.47 g and the “GUS+ Shoots” value [4, 8] was 0. For the same molecule, the “GUS+ Shoots/explants” value [4, 8] was 0, the “No. Shoots” value [4, 9] was 0 and the “GUS+ Shoots” value [4, 10] was 0. For the same molecule, the “GUS+ Shoots/explants” value [4, 10] was 0, the “No. Shoots” value [4, 10] was 0 and the “GUS+ Shoots” value [4, 11] was 0. The “GUS+ Shoots/explants” value [4, 11] was 0, the “No. Shoots” value [4, 11] was 0 and the “GUS+ Shoots” value [4, 12] was 0. For the same molecule, the “GUS+ Shoots/explants” value [4, 12] was 0, the “No. Shoots” value [4, 12] was 0 and the “GUS+ Shoots” value [4, 13] was 0. The “GUS+ Shoots/explants” value [4, 13] was 0, the “No. Shoots” value [4, 13] was 0 and the “GUS+ Shoots” value [4, 14] was 0. For the same molecule, the “GUS+ Shoots/explants” value [4, 14] was 0, the “No. Shoots” value [4, 14] was 0 and the “GUS+ Shoots” value [4, 15] was 0. For the same molecule, the “GUS+ Shoots/explants” value [4, 15] was 0, the “GUS+ shoots/no. Shoots (%)” value [4, 15] was 0% and the “No. Shoots” value [4, 15] was 32. The “GUS+ Shoots” value [4, 16] was 0, the “GUS+ shoots/no. Shoots (%)” value [4, 16] was 0% and the “No. Shoots” value [4, 16] was 5. The “GUS+ Shoots” value [4, 17] was 0, the “GUS+ Shoots/explants” value [4, 17] was 0 and the “GUS+ shoots/no. Shoots (%)” value [4, 17] was 0%. The “No. Shoots” value [4, 17] was 2, the “GUS+ Shoots” value [5, 8] was 0 and the “GUS+ Shoots/explants” value [5, 8] was 0. For the same molecule, the “No. Shoots” value [5, 9] was 0, the “GUS+ Shoots” value [5, 10] was 0 and the “GUS+ Shoots/explants” value [5, 10] was 0. The “No. Shoots” value [5, 10] was 0, the “GUS+ Shoots” value [5, 11] was 0 and the “GUS+ Shoots/explants” value [5, 11] was 0. For the same molecule, the “No. Shoots” value [5, 11] was 0, the “GUS+ Shoots” value [5, 12] was 0 and the “GUS+ Shoots/explants” value [5, 12] was 0. The “No. Shoots” value [5, 12] was 0, the “GUS+ Shoots” value [5, 13] was 0 and the “GUS+ Shoots/explants” value [5, 13] was 0. For the same molecule, the “No. Shoots” value [5, 13] was 0, the “GUS+ Shoots” value [5, 14] was 0 and the “GUS+ Shoots/explants” value [5, 14] was 0. For the same molecule, the “No. Shoots” value [5, 14] was 0, the “GUS+ Shoots” value [5, 15] was 5 and the “GUS+ Shoots/explants” value [5, 15] was 0.05. The “GUS+ shoots/no. Shoots (%)” value [5, 15] was 6%, the “No. Shoots” value [5, 15] was 84 and the “GUS+ Shoots” value [5, 16] was 0. The “GUS+ Shoots/explants” value [5, 16] was 0, the “GUS+ shoots/no. Shoots (%)” value [5, 16] was 0% and the “No. Shoots” value [5, 16] was 20. For the same molecule, the “GUS+ Shoots” value [5, 17] was 4, the “GUS+ Shoots/explants” value [5, 17] was 0.04 and the “GUS+ shoots/no. Shoots (%)” value [5, 17] was 57.1%. The “No. Shoots” value [5, 17] was 7.
